Assay results from patent publication US20080146592A1, “Method of Treating Preeclampsia Employing Metolazone” (priority 2003, published 2008).

Test system: “preeclamptic” rat model
Test: "preeclamptic" rat model (pregnant rats, saline drinking water plus weekly DOCA)
Assay type: in vivo, Sprague-Dawley rats
Experimental: Metolazone is a diuretic with unique properties. At low doses, it reduces blood pressure in our “preeclamptic” rat model. Female Sprague-Dawley rats were mated and the “preeclamptic” syndrome was induced by replacing their drinking water with saline and injecting them with DOCA at weekly intervals. When hypertension had occurred (3-5 days of gestation), the animals were randomly divided into two groups: 1) Group I (PE+M), n=7, was given metolazone in a daily dose of 0.04 mg/kg body weight daily for 12-14 day by gavage and 2) Group II (PE) n=5, was simply given the vehicle (saline).

[1] = rat model of preeclampsia, metolazone treatment

Cc1ccccc1N1C(=O)c2cc(S(N)(=O)=O)c(Cl)cc2NC1C (stereo not shown) [Metolazone, metolazone]
Urinary sodium excretion after M (PE+M rats, 0.04 mg/kg daily by gavage, 16.2+/−6 mM/24 h prior to M administration, p>0.05): 15.3 mM/24 h | Growth retardation (animals affected) (PE+M rats, seen in four of the five vehicle PE animals): none | Weight gain versus vehicle group (PE+M versus PE rats): similar | Blood pressure in the PE+M animals after treatment (mean) (metolazone 0.04 mg/kg body weight daily for 12-14 day by gavage, before treatment 119+/−3 mm Hg, vehicle PE rats 121+/−7 mm Hg, p<0.01): 100+/−16 mm/Hg | Effect on intrauterine growth restriction [1]: beneficial effect | Influence on pup number and development [1]: positive influence | Volume contraction (rat model of preeclampsia, non-diuretic dose): without causing volume contraction
